Literature values, collected in PubChem BioAssay AID1259410 (Chemical Carcinogenesis Research Information System (CCRIS), 2018).

Test system: rodent tumor promotion studies, tumor incidence
Experiment: CCRIS tumor promotion studies

## CCCCCCCCCCCCCC(=O)O[C@@H]1[C@@H](C)[C@@]2(O)[C@@H](C=C(CO)C[C@]3(O)C(=O)C(C)=C[C@@H]23)[C@@H]2C(C)(C)[C@]12OC(C)=O
Carcinogen: 7,12-DIMETHYLBENZ(A)ANTHRACENE, Doses [Carcinogen]: IG TO MOTHERS, Route [Carcinogen]: GAVAGE, Route [Promoter]: DERMAL, Species: MOUSE, Strain/Sex: NMRI/MALE,FEMALE
  outcome: integumentary system (skin); forestomach; stomach; liver; lung; colon; kidney; r
Carcinogen: 7,12-DIMETHYLBENZ(A)ANTHRACENE, Doses [Carcinogen]: IG, Route [Carcinogen]: GAVAGE, Route [Promoter]: GAVAGE, Species: MOUSE, Strain/Sex: FEMALE
  outcome: forestomach
Carcinogen: 7,12-DIMETHYLBENZ(A)ANTHRACENE, Doses [Carcinogen]: TOP, Route [Carcinogen]: DERMAL, Route [Promoter]: DERMAL, Species: MOUSE, Strain/Sex: MALE,FEMALE
  outcome: integumentary system (skin)
Carcinogen: 7,12-DIMETHYLBENZ(A)ANTHRACENE, Doses [Carcinogen]: TRANS-PLACENTAL, Route [Carcinogen]: TRANS-PLACENTAL, Route [Promoter]: DERMAL, Species: MOUSE, Strain/Sex: NMRI/MALE,FEMALE
  outcome: integumentary system (skin); lung; liver
Carcinogen: 7,12-DIMETHYLBENZO[K]FLUORANTHENE, 95741-56-3, Doses [Carcinogen]: 4 UMOL (TOTAL DOSE) ADMINISTERED IN 10 SUBDOSES 1/2 D, Doses [Promoter]: 2.5 UG IN 0.1 ML ACETONE 3/WK FOR 30 WK BEGINNING 10 D POST CARCINOGEN TREATMENT (STUDY DURATION: 33 WK), Route [Carcinogen]: DERMAL, Route [Promoter]: DERMAL, Species: MOUSE, Strain/Sex: CRL:CD-1/FEMALE
  outcome: skin: tumor
Carcinogen: 7,12-DIMETHYLBENZ[A]ANTHRACENE-3,4-DIOL, 71964-72-2, Doses [Carcinogen]: 4, 10 NMOL ONCE, Doses [Promoter]: 0, 3.4 NMOL 2/WK FOR 19 WK BEGINNING 2 WK POST CARCINOGEN DOSE (STUDY DURATION: 21 WK), Route [Carcinogen]: DERMAL, Route [Promoter]: DERMAL, Species: MOUSE, Strain/Sex: SENCAR/FEMALE
  outcome: skin: papilloma
Carcinogen: 7,12-DIMETHYLBENZ[A]ANTHRACENE, 57-97-6, Doses [Carcinogen]: 1 NMOL IN 100 µL ACETONE, Doses [Promoter]: 2.16 NMOL IN 100 µL ACETONE 2/WK FOR 27 WK BEGINNING 1 WK POST CARCINOGEN DOSE (STUDY DURATION: 28 WK), Route [Carcinogen]: DERMAL, Route [Promoter]: DERMAL, Species: MOUSE, Strain/Sex: SENCAR/FEMALE
  outcome: skin: tumor
Carcinogen: 7,12-DIMETHYLBENZ[A]ANTHRACENE, 57-97-6, Doses [Carcinogen]: 4, 20, 100 NMOL IN 100 µL ACETONE ONCE, Doses [Carcinogen]: 4, 20, 100 NMOL IN 100 µL ACETONE ONCE, Doses [Promoter]: 3.24 NMOL/100 µL ACETONE 2/WK BEGINNING 2 WK POST CARCINOGEN DOSE AND CONTINUING FOR 24 WK (STUDY DURATION: 27 WK), Route [Carcinogen]: DERMAL, Route [Promoter]: DERMAL, Species: MOUSE, Strain/Sex: SENCAR/FEMALE
  outcome: skin: tumor
Carcinogen: 7,12-DIMETHYLBENZ[A]ANTHRACENE, 57-97-6, Doses [Carcinogen]: 10 NMOL APPLIED TO BACK ONCE, Doses [Promoter]: 1.5 NMOL 2/WK FOR 19 WK BEGINNING 1 WK POST CARCINOGEN DOSE (STUDY DURATION: 40 WK), Route [Carcinogen]: DERMAL, Route [Promoter]: DERMAL, Species: MOUSE, Strain/Sex: HRA/SKH/FEMALE
  outcome: skin: papilloma
Carcinogen: 7,12-DIMETHYLBENZ[A]ANTHRACENE, 57-97-6, Doses [Carcinogen]: 20 NMOL IN ACETONE ONCE, Doses [Promoter]: 0, 0.2 ML OF 10 UG/ML SOLUTION IN ACETONE 2/WK FOR 51 WK (STUDY DURATION: 52 WK), Route [Carcinogen]: DERMAL, Route [Promoter]: DERMAL, Species: MOUSE, Strain/Sex: SENCAR/FEMALE
  outcome: skin: squamous cell carcinoma
Carcinogen: 7,12-DIMETHYLBENZ[A]ANTHRACENE, 57-97-6, Doses [Carcinogen]: 20 NMOL ONCE, Doses [Promoter]: 0, 1, 2, 5 UG IN 200 µL ACETONE 2/WK FOR 23 WK BEGINNING 1 WK POST CARCINOGEN DOSE (STUDY DURATION: 24 WK), Doses [Promoter]: 0, 1, 2, 5 UG IN 200 µL ACETONE 2/WK FOR 23 WK BEGINNING 1 WK POST CARCINOGEN DOSE (STUDY DURATION: 24 WK), Route [Carcinogen]: DERMAL, Route [Promoter]: DERMAL, Species: MOUSE, Strain/Sex: 129/SVEV/FEMALE
  outcome: skin: tumor
Carcinogen: 7,12-DIMETHYLBENZ[A]ANTHRACENE, 57-97-6, Doses [Carcinogen]: 100 NMOL ONCE, Doses [Promoter]: 0, 1, 2, 5 UG IN 200 µL ACETONE 2/WK FOR 23 WK BEGINNING 1 WK POST CARCINOGEN DOSE (STUDY DURATION: 24 WK), Doses [Promoter]: 0, 1, 2, 5 UG IN 200 µL ACETONE 2/WK FOR 23 WK BEGINNING 1 WK POST CARCINOGEN DOSE (STUDY DURATION: 24 WK), Route [Carcinogen]: DERMAL, Route [Promoter]: DERMAL, Species: MOUSE, Strain/Sex: 129/SVEV/FEMALE
  outcome: skin: tumor
Carcinogen: 7,12-DIMETHYLBENZ[A]ANTHRACENE, 57-97-6, Doses [Carcinogen]: 100 NMOL ONCE, Doses [Promoter]: 10 NMOL 2/WK FOR 24 WK BEGINNING 1 WK POST CARCINOGEN DOSE (STUDY DURATION: 25 WK), Route [Carcinogen]: DERMAL, Route [Promoter]: DERMAL, Species: NMRI/FEMALE G, Strain/Sex: NMRI/FEMALE
  outcome: skin: tumor
Carcinogen: 7,12-DIMETHYLBENZ[A]ANTHRACENE, 57-97-6, Doses [Carcinogen]: 200 NMOL IN 100 µL ACETONE ONCE, Doses [Promoter]: 0, 5 NMOL IN 100 µL ACETONE 2/WK FOR 20 WK BEGINNING 1 WK POST CARCINOGEN DOSE (STUDY DURATION: 21 WK), Route [Carcinogen]: DERMAL, Route [Promoter]: DERMAL, Species: MOUSE, Strain/Sex: CD-1/FEMALE
  outcome: skin: papilloma
Carcinogen: 7-FLUOROBENZO[B]FLUORANTHENE, 89883-22-7, Doses [Carcinogen]: 10, 40, 120, 400 NMOL (TOTAL DOSE) APPLIED 1/2 D FOR 10 SUBDOSES, Doses [Carcinogen]: 10, 40, 120, 400 NMOL (TOTAL DOSE) APPLIED 1/2 D FOR 10 SUBDOSES, Doses [Promoter]: 0, 2.5 UG IN 100 µL ACETONE 3/WK FOR 20 WK BEGINNING 10 D POST CARCINOGEN TREATMENT (STUDY DURATION: 22 WK), Route [Carcinogen]: DERMAL, Route [Promoter]: DERMAL, Species: MOUSE, Strain/Sex: CRL:CD-1/FEMALE
  outcome: skin: tumor
Carcinogen: 7-METHYLBENZ[A]ANTHRACENE-3,4-DIOL, 175614-82-1, Doses [Carcinogen]: 200, 400 NMOL ONCE, Doses [Promoter]: 0, 3.4 NMOL 2/WK FOR 19 WK BEGINNING 2 WK POST CARCINOGEN DOSE (STUDY DURATION: 21 WK), Route [Carcinogen]: DERMAL, Route [Promoter]: DERMAL, Species: MOUSE, Strain/Sex: SENCAR/FEMALE
  outcome: skin: papilloma
Carcinogen: 8-METHYLBENZO[K]FLUORANTHENE, 95741-54-1, Doses [Carcinogen]: 4 UMOL (TOTAL DOSE) ADMINISTERED IN 10 SUBDOSES 1/2 D, Doses [Promoter]: 2.5 UG IN 0.1 ML ACETONE 3/WK FOR 30 WK BEGINNING 10 D POST CARCINOGEN TREATMENT (STUDY DURATION: 33 WK), Route [Carcinogen]: DERMAL, Route [Promoter]: DERMAL, Species: MOUSE, Strain/Sex: CRL:CD-1/FEMALE
  outcome: skin: tumor
Carcinogen: 9-FLUORO-7,12-DIMETHYLBENZ[A]ANTHRACENE-3,4-DIOL, 175614-88-7, Doses [Carcinogen]: 4, 10 NMOL ONCE, Doses [Promoter]: 0, 3.4 NMOL 2/WK FOR 19 WK BEGINNING 2 WK POST CARCINOGEN DOSE (STUDY DURATION: 21 WK), Route [Carcinogen]: DERMAL, Route [Promoter]: DERMAL, Species: MOUSE, Strain/Sex: SENCAR/FEMALE
  outcome: skin: papilloma
Carcinogen: 9-FLUORO-7-METHYLBENZ[A]ANTHRACENE-3,4-DIOL, 175614-83-2, Doses [Carcinogen]: 200, 400 NMOL ONCE, Doses [Promoter]: 0, 3.4 NMOL 2/WK FOR 19 WK BEGINNING 2 WK POST CARCINOGEN DOSE (STUDY DURATION: 21 WK), Route [Carcinogen]: DERMAL, Route [Promoter]: DERMAL, Species: MOUSE, Strain/Sex: SENCAR/FEMALE
  outcome: skin: papilloma
Carcinogen: 9-FLUORO-12-METHYLBENZ[A]ANTHRACENE-3,4-DIOL, 175614-86-5, Doses [Carcinogen]: 200, 400 NMOL ONCE, Doses [Promoter]: 0, 3.4 NMOL 2/WK FOR 19 WK BEGINNING 2 WK POST CARCINOGEN DOSE (STUDY DURATION: 21 WK), Route [Carcinogen]: DERMAL, Route [Promoter]: DERMAL, Species: MOUSE, Strain/Sex: SENCAR/FEMALE
  outcome: skin: papilloma
Carcinogen: 9-METHYLBENZO[K]FLUORANTHENE, 95741-55-2, Doses [Carcinogen]: 4 UMOL (TOTAL DOSE) ADMINISTERED IN 10 SUBDOSES 1/2 D, Doses [Promoter]: 2.5 UG IN 0.1 ML ACETONE 3/WK FOR 30 WK BEGINNING 10 D POST CARCINOGEN TREATMENT (STUDY DURATION: 33 WK), Route [Carcinogen]: DERMAL, Route [Promoter]: DERMAL, Species: MOUSE, Strain/Sex: CRL:CD-1/FEMALE
  outcome: skin: tumor
Carcinogen: 10-FLUORO-7,12-DIMETHYLBENZ[A]ANTHRACENE-3,4-DIOL, 175614-89-8, Doses [Carcinogen]: 4, 10 NMOL ONCE, Doses [Promoter]: 0, 3.4 NMOL 2/WK FOR 19 WK BEGINNING 2 WK POST CARCINOGEN DOSE (STUDY DURATION: 21 WK), Route [Carcinogen]: DERMAL, Route [Promoter]: DERMAL, Species: MOUSE, Strain/Sex: SENCAR/FEMALE
  outcome: skin: papilloma
Carcinogen: 10-FLUORO-7-METHYLBENZ[A]ANTHRACENE-3,4-DIOL, 175614-84-3, Doses [Carcinogen]: 200, 400 NMOL ONCE, Doses [Promoter]: 0, 3.4 NMOL 2/WK FOR 19 WK BEGINNING 2 WK POST CARCINOGEN DOSE (STUDY DURATION: 21 WK), Route [Carcinogen]: DERMAL, Route [Promoter]: DERMAL, Species: MOUSE, Strain/Sex: SENCAR/FEMALE
  outcome: skin: papilloma
Carcinogen: 10-FLUORO-12-METHYLBENZ[A]ANTHRACENE-3,4-DIOL, 175614-87-6, Doses [Carcinogen]: 200, 400 NMOL ONCE, Doses [Promoter]: 0, 3.4 NMOL 2/WK FOR 19 WK BEGINNING 2 WK POST CARCINOGEN DOSE (STUDY DURATION: 21 WK), Route [Carcinogen]: DERMAL, Route [Promoter]: DERMAL, Species: MOUSE, Strain/Sex: SENCAR/FEMALE
  outcome: skin: papilloma
Carcinogen: 10-FLUOROBENZO[J]FLUORANTHENE, 129286-37-9, Doses [Carcinogen]: 1, 2 UMOL (TOTAL DOSE) ADMINISTERED IN SUBDOSES 1/2 D, Doses [Promoter]: 2.5 UG IN 100 µL ACETONE 3/WK FOR 20 WK BEGINNING 10 D POST LAST CARCINOGEN DOSE (STUDY DURATION: 27 WK), Route [Carcinogen]: DERMAL, Route [Promoter]: DERMAL, Species: MOUSE, Strain/Sex: CD-1/FEMALE
  outcome: skin: tumor
Carcinogen: 12-METHYLBENZ[A]ANTHRACENE-3,4-DIOL, 175614-85-4, Doses [Carcinogen]: 200, 400 NMOL ONCE, Doses [Promoter]: 0, 3.4 NMOL 2/WK FOR 19 WK BEGINNING 2 WK POST CARCINOGEN DOSE (STUDY DURATION: 21 WK), Route [Carcinogen]: DERMAL, Route [Promoter]: DERMAL, Species: MOUSE, Strain/Sex: SENCAR/FEMALE
  outcome: skin: papilloma
